Source: patent US5792635A, “Method of inhibiting the sodium/proton exchanger NHE3 and method of inhibiting growth by administering squalamine” (priority 1995, dated 1998)
In brackets after ≈: the same amount, converted by molar mass.

Columns and labels:
S. aureus = assay: Antibiotic activity, MIC; type: cell-based; conditions: for MIC: Staphylococcus aureus
E. Coli = assay: Antibiotic activity, MIC; type: cell-based; conditions: for MIC: Escherichia coli
C. albicans = assay: Antibiotic activity, MIC; type: cell-based; conditions: for MIC: Candida albicans
chick embryo = assay: Chick embryo diss. assay (Table II); type: in vivo
Method: Using the chick embryo vitelline capillaries assay, compounds were tested for their ability to induce capillary regression. Each compound was applied in 0.1 ml of 15% Ficol 400 and PBS onto the embryo, and vascular regression was assessed after 60 minutes.

Xenopus tadpoles = assay: Tadpole assay; conditions: Xenopus tadpole assay

| Compound | MIC (S. aureus) | MIC (E. Coli) | MIC (C. albicans) | functional similarity in tadpole assay (Xenopus tadpoles) | further results |
| --- | --- | --- | --- | --- | --- |
| CC(C)CCC[C@@H](C)[C@H]1CC[C@H]2[C@@H]3CC[C@H]4C[C@H](NCCCN5CCCCN=C5N)CC[C@]4(C)[C@H]3CC[C@]12C |  |  |  |  | MIC Values (S. aureus): 2 µg/mL (≈ 3.7 µM); MIC Values (E. Coli): > 256 µg/mL; MIC Values (C. albicans): 32 µg/mL (≈ 59.2 µM) |
| CC(COS(=O)(=O)O)C(=O)CC[C@@H](C)[C@H]1CC[C@H]2[C@@H]3[C@H](O)C[C@H]4C[C@@H](NCCCNCCCCN)CC[C@]4(C)[C@H]3CC[C@]12C (stereo partly shown) | 8 µg/mL (≈ 12.5 µM) |  |  |  |  |
| C=C(C)C(=O)CCC(C)[C@H]1CCC2C3C(CC[C@@]21C)[C@@]1(C)CC[C@H](NCCCNCCCCN)C[C@@H]1C[C@H]3O (stereo partly shown) | 4 µg/mL (≈ 7.35 µM) | 32 µg/mL (≈ 58.8 µM) | 4 µg/mL (≈ 7.35 µM) |  |  |
| CC(C)CCCC(C)[C@H]1CCC2C3C(CC[C@@]21C)[C@@]1(C)CC[C@@H](N)C[C@@H]1C[C@H]3O (stereo partly shown) | 2 µg/mL (≈ 4.95 µM) | > 256 µg/mL | 2 µg/mL (≈ 4.95 µM) |  |  |
| CC(CCC(=O)O)[C@H]1CCC2C3C(CC[C@@]21C)[C@@]1(C)CC[C@@H](NCCN)C[C@H]1C[C@H]3O (stereo partly shown) | 32 µg/mL (≈ 73.6 µM) | 64 µg/mL (≈ 147 µM) | 64 µg/mL (≈ 147 µM) |  |  |
| COC(=O)CCC(C)[C@H]1CCC2C3C[C@@H](O)[C@H]4C[C@@H](NCCN)CC[C@]4(C)C3CC[C@@]21C (stereo partly shown) | 1 µg/mL (≈ 2.23 µM) | 8 to 16 µg/mL (≈ 17.8 to 35.7 µM) | 2 to 4 µg/mL (≈ 4.46 to 8.91 µM) |  |  |
| COC(=O)CCC(C)[C@H]1CCC2C3C[C@@H](O)[C@H]4C[C@H](NCCCNCCCCNCCCN)CC[C@]4(C)C3CC[C@@]21C (stereo partly shown) | 2 to 4 µg/mL (≈ 3.38 to 6.77 µM) | 32 µg/mL (≈ 54.2 µM) | 4 µg/mL (≈ 6.77 µM) |  |  |
| CC(CCC(=O)O)[C@H]1CCC2C3C[C@@H](O)[C@H]4C[C@@H](NCCCNCCCCNCCCN)CC[C@]4(C)C3CC[C@@]21C (stereo partly shown) | 16 µg/mL (≈ 27.7 µM) | 16 µg/mL (≈ 27.7 µM) | 4 µg/mL (≈ 6.93 µM) |  |  |
| CC(C)CCC[C@@H](C)[C@H]1CC[C@H]2[C@@H]3CC[C@H]4C[C@H](NCCCNCCCCNCCCN)CC[C@]4(C)[C@H]3CC[C@]12C |  |  |  |  | Minimum Effective Concentration, chick embryo diss. assay (chick embryo): > 10 µg |
| CC(CCCOS(=O)(=O)O)[C@H]1CCC2C3CC[C@H]4C[C@@H](NCCCNCCCCN)CC[C@]4(C)C3CC[C@@]21C (stereo partly shown) |  |  |  |  | Minimum Effective Concentration, chick embryo diss. assay (chick embryo): > 10 µg |
| CC(C)CCC[C@@H](C)[C@H]1CC[C@H]2[C@@H]3[C@H](O)C[C@H]4C[C@H](NCCCNCCCCN)CC[C@]4(C)[C@H]3CC[C@]12C [Compound 370] |  |  |  | pharmacologic activity similar to that seen for FX 3 |  |
| CC(C)CCC[C@@H](C)[C@H]1CC[C@H]2[C@@H]3[C@H](O)C[C@H]4C[C@@H](NCCCNCCCCN)CC[C@]4(C)[C@H]3CC[C@]12C [Compound 371] |  |  |  | effects like those produced by compound 1436 |  |
| COC(=O)CC[C@@H](C)[C@H]1CC[C@H]2[C@@H]3[C@H](O)C[C@@H]4C[C@H](NCCN)CC[C@]4(C)[C@H]3CC[C@]12C [Compound 410] |  |  |  | functionally similar to compound 1437 |  |
| COC(=O)CC[C@@H](C)[C@H]1CC[C@H]2[C@@H]3CC[C@@H]4C[C@H](NCCN)CC[C@]4(C)[C@H]3C[C@H](O)[C@]12C [Compound 416] |  |  |  | functionally similar to compound 1437 |  |
| COC(=O)CC[C@@H](C)[C@H]1CC[C@H]2[C@@H]3C[C@@H](O)[C@H]4C[C@H](NCCN)CC[C@]4(C)[C@H]3CC[C@]12C [Compound 431] |  |  |  | functionally similar to compound 1437 |  |
| COC(=O)CC[C@@H](C)[C@H]1CC[C@H]2[C@@H]3C[C@@H](O)[C@H]4C[C@@H](NCCN)CC[C@]4(C)[C@H]3CC[C@]12C [Compound 432] |  |  |  | functionally similar to compound 1437 |  |
| C[C@H](CCC(=O)O)[C@H]1CC[C@H]2[C@@H]3C[C@@H](O)[C@H]4C[C@@H](NCCN)CC[C@]4(C)[C@H]3CC[C@]12C [Compound 433] |  |  |  | functionally similar to compound 1437 |  |
| COC(=O)CC[C@@H](C)[C@H]1CC[C@H]2[C@@H]3CC[C@H]4C[C@H](NCCCNCCCCNCCCN)CC[C@]4(C)[C@H]3CC[C@]12C [Compound 458] |  |  |  | pharmacologic activity similar to that seen for FX 3 |  |
| COC(=O)CC[C@@H](C)[C@H]1CC[C@H]2[C@@H]3CC[C@H]4C[C@@H](NCCCNCCCCNCCCN)CC[C@]4(C)[C@H]3CC[C@]12C [Compound 459] |  |  |  | pharmacologic activity similar to that seen for FX 3 |  |
| COC(=O)CC[C@@H](C)[C@H]1CC[C@H]2[C@@H]3C[C@@H](O)[C@H]4C[C@H](NCCCNCCCCNCCCN)CC[C@]4(C)[C@H]3CC[C@]12C [Compound 465] |  |  |  | pharmacologic activity similar to that seen for FX 3 |  |

| Compound | MIC (S. aureus) | MIC (E. Coli) | MIC (C. albicans) | functional similarity in tadpole assay (Xenopus tadpoles) | further results |
| --- | --- | --- | --- | --- | --- |
| COC(=O)CC[C@@H](C)[C@H]1CC[C@H]2[C@@H]3C[C@@H](O)[C@H]4C[C@@H](NCCCNCCCCNCCCN)CC[C@]4(C)[C@H]3CC[C@]12C [Compound 466] |  |  |  | pharmacologic activity similar to that seen for FX 3 |  |
| CC(C)CCC[C@@H](C)[C@H]1CC[C@H]2[C@@H]3[C@H](O)C[C@H]4C[C@H](N)CC[C@]4(C)[C@H]3CC[C@]12C [Compound 1363] |  |  |  | pharmacologic activity similar to Fraction 1 | potency in tadpole assay relative to Fraction 1 (Xenopus tadpoles): potencies comparable to that of Fraction 1 |
| CC(C)CCCC(C)[C@H]1CCC2C3C(CC[C@@]21C)[C@@]1(C)CC[C@H](N)C[C@@H]1C[C@H]3O (stereo partly shown) [drawing 55] | 2 µg/mL (≈ 4.95 µM) | > 256 µg/mL | 2 µg/mL (≈ 4.95 µM) |  |  |
| CC(C)CCCC(C)[C@H]1CCC2C3C(CC[C@@]21C)[C@@]1(C)CC[C@@H](NCCCNCCCCN)C[C@@H]1C[C@H]3O (stereo partly shown) [drawing 56] | 4 µg/mL (≈ 7.52 µM) | 32 µg/mL (≈ 60.2 µM) | 2 µg/mL (≈ 3.76 µM) |  |  |
| CC(C)CCCC(C)[C@H]1CCC2C3C(CC[C@@]21C)[C@@]1(C)CC[C@H](NCCCNCCCCN)C[C@@H]1C[C@H]3O (stereo partly shown) [drawing 57] | 4 µg/mL (≈ 7.52 µM) | 64 µg/mL (≈ 120 µM) | 2 µg/mL (≈ 3.76 µM) |  |  |
| COC(=O)CCC(C)[C@H]1CCC2C3C(CC[C@@]21C)[C@@]1(C)CC[C@H](NCCN)C[C@H]1C[C@H]3O (stereo partly shown) [drawing 58] | 32 µg/mL (≈ 71.3 µM) | 64 µg/mL (≈ 143 µM) | 16 µg/mL (≈ 35.7 µM) |  |  |
| COC(=O)CCC(C)[C@H]1CCC2C3C(CC[C@@]21C)[C@@]1(C)CC[C@@H](NCCN)C[C@H]1C[C@H]3O (stereo partly shown) [drawing 59] | 16 µg/mL (≈ 35.7 µM) | 16 µg/mL (≈ 35.7 µM) | 16 µg/mL (≈ 35.7 µM) |  |  |
| COC(=O)CCC(C)[C@H]1CCC2C3C(CC[C@@]21C)[C@@]1(C)CC[C@H](NCCCNCCCCNCCCN)C[C@H]1C[C@H]3O (stereo partly shown) [drawing 60] | 8 µg/mL (≈ 13.5 µM) | 64 µg/mL (≈ 108 µM) | 2 µg/mL (≈ 3.38 µM) |  |  |
| CC(CCC(=O)O)[C@H]1CCC2C3C(CC[C@@]21C)[C@@]1(C)CC[C@@H](NCCCNCCCCNCCCN)C[C@H]1C[C@H]3O (stereo partly shown) [drawing 61] | 8 µg/mL (≈ 13.9 µM) | 64 µg/mL (≈ 111 µM) | 8 µg/mL (≈ 13.9 µM) |  |  |
| C[C@H](CCC(=O)O)[C@H]1CC[C@H]2[C@@H]3[C@H](O)C[C@@H]4C[C@@H](NCCCNCCCCNCCCN)CC[C@]4(C)[C@H]3CC[C@]12C [drawing 62] | 8 µg/mL (≈ 13.9 µM) | 256 µg/mL (≈ 444 µM) | 32 µg/mL (≈ 55.5 µM) |  |  |
| CC(CCC(=O)O)[C@H]1CCC2C3C(CC[C@@]21C)[C@@]1(C)CC[C@H](NCCN)C[C@H]1C[C@H]3O (stereo partly shown) [drawing 64] | 128 µg/mL (≈ 294 µM) | 128 µg/mL (≈ 294 µM) | 256 µg/mL (≈ 589 µM) |  |  |
| COC(=O)CCC(C)[C@H]1CCC2C3CC[C@@H]4C[C@H](NCCN)CC[C@]4(C)C3C[C@H](O)[C@@]21C (stereo partly shown) [drawing 65] | 8 µg/mL (≈ 17.8 µM) | 8 µg/mL (≈ 17.8 µM) | 32 µg/mL (≈ 71.3 µM) |  |  |
| CC(CCC(=O)O)[C@H]1CCC2C3CC[C@@H]4C[C@H](NCCN)CC[C@]4(C)C3C[C@H](O)[C@@]21C (stereo partly shown) [drawing 66] | 16 to 32 µg/mL (≈ 36.8 to 73.6 µM) | 64 µg/mL (≈ 147 µM) | 32 µg/mL (≈ 73.6 µM) |  |  |
| COC(=O)CCC(C)[C@H]1CCC2C3C[C@@H](O)[C@H]4C[C@H](NCCN)CC[C@]4(C)C3CC[C@@]21C (stereo partly shown) [drawing 67] | 16 µg/mL (≈ 35.7 µM) | 32 to 64 µg/mL (≈ 71.3 to 143 µM) | 8 µg/mL (≈ 17.8 µM) |  |  |
| CC(CCC(=O)O)[C@H]1CCC2C3C[C@@H](O)[C@H]4C[C@@H](NCCN)CC[C@]4(C)C3CC[C@@]21C (stereo partly shown) [drawing 69] | > 256 µg/mL | > 256 µg/mL | > 256 µg/mL |  |  |
| COC(=O)CCC(C)[C@H]1CCC2C3CC[C@@H]4C[C@H](NCCCNCCCCNCCCN)CC[C@]4(C)C3C[C@H](O)[C@@]21C (stereo partly shown) [drawing 72] | 2 µg/mL (≈ 3.38 µM) | 16 µg/mL (≈ 27.1 µM) | 8 µg/mL (≈ 13.5 µM) |  |  |
| CC(CCC(=O)O)[C@H]1CCC2C3CC[C@@H]4C[C@H](NCCCNCCCCNCCCN)CC[C@]4(C)C3C[C@H](O)[C@@]21C (stereo partly shown) [drawing 73] | 4 µg/mL (≈ 6.93 µM) | 8 to 16 µg/mL (≈ 13.9 to 27.7 µM) | 4 µg/mL (≈ 6.93 µM) |  |  |
| COC(=O)CCC(C)[C@H]1CCC2C3CC[C@H]4C[C@H](NCCCNCCCCNCCCN)CC[C@]4(C)C3CC[C@@]21C (stereo partly shown) [drawing 74] | 4 µg/mL (≈ 6.96 µM) | 32 µg/mL (≈ 55.7 µM) | 2 µg/mL (≈ 3.48 µM) |  |  |
| COC(=O)CCC(C)[C@H]1CCC2C3CC[C@H]4C[C@@H](NCCCNCCCCNCCCN)CC[C@]4(C)C3CC[C@@]21C (stereo partly shown) [drawing 75] | 1 to 2 µg/mL (≈ 1.74 to 3.48 µM) | 32 µg/mL (≈ 55.7 µM) | 2 µg/mL (≈ 3.48 µM) |  |  |
| COC(=O)CCC(C)[C@H]1CCC2C3C[C@@H](O)[C@H]4C[C@@H](NCCCNCCCCNCCCN)CC[C@]4(C)C3CC[C@@]21C (stereo partly shown) [drawing 77] | 2 µg/mL (≈ 3.38 µM) | 32 µg/mL (≈ 54.2 µM) | 2 µg/mL (≈ 3.38 µM) |  |  |
